This assay concerns the target human PDE10A (Homo sapiens (Human), UniProt Q9Y233). The experiment in a line: human PDE10A full length Scintillation Proximity Assay (SPA). In kind it is biochemical. Conditions: 50 nM cGMP and 50 nM [3H]-cGMP, 20 minutes at room temperature; read-out: PDE10A inhibition IC50. In a few lines:
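Full-length enzyme incubated with compounds; reaction started with cGMP plus [^3H]-cGMP substrate and run 20 min at room temperature. Stopped with yttrium silicate SPA beads in 18 mM zinc sulphate, 1 h shaking, then scintillation counting; background from enzyme-free wells.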
For orientation: SPA uses beads or plates that emit light when radiolabelled molecules are held near them.

human PDE10A, sequence (Q9Y233 other isoform, or with tags, fused parts or gaps): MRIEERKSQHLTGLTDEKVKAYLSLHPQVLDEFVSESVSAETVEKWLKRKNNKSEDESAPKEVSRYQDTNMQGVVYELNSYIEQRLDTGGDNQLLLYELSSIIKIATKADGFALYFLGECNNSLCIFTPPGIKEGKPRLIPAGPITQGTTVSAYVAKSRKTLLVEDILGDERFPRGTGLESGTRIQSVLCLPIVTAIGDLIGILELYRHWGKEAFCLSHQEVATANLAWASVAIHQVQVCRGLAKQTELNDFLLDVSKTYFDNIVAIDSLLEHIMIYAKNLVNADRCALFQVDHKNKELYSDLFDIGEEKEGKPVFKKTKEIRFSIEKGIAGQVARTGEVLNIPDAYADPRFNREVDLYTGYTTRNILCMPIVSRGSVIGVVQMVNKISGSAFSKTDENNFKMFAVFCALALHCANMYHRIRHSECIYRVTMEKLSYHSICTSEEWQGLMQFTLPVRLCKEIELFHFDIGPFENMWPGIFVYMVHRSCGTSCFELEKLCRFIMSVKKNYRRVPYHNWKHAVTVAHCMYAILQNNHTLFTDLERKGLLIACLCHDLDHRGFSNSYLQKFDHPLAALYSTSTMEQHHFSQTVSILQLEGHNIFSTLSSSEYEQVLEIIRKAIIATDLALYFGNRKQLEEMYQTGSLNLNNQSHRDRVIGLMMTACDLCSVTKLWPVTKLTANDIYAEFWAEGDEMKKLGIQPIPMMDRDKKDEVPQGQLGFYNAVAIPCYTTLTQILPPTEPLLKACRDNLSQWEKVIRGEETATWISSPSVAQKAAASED

Take `CCNC(=O)c1c(NC(=O)c2nc(C3CC3)cnc2Nc2cncnc2)sc2c1CCCC2` [Example 185, 6-Cyclopropyl-3-(pyrimidin-5-ylamino)-pyrazine-2-carboxylic acid (3-ethylcarbamoyl-4,5,6,7-tetrahydro-benzo[b]thiophen-2-yl)-amide]: the IC50 (as a rule, the concentration needed to halve the response being measured) stood at 2690 nM. As for `CNC(=O)c1c(NC(=O)c2nc(C(C)C)ncc2Nc2cccnc2)cnn1C` [Example 186, 2-Isopropyl-5-(pyridin-3-ylamino)-pyrimidine-4-carboxylic acid (1-methyl-5-methylcarbamoyl-1H-pyrazol-4-yl)-amide], the 50% inhibitory concentration (IC50) turned out to be 8.2 nM. Take `CNC(=O)c1c(NC(=O)c2nc(C(C)O)cnc2Nc2cncnc2)cnn1C` (centres unmarked) [Example 187, 6-(1-Hydroxy-ethyl)-3-(pyrimidin-5-ylamino)-pyrazine-2-carboxylic acid (1-methyl-5-methylcarbamoyl-1H-pyrazol-4-yl)-amide]: the IC50 is 63.8 nM. As for `CNC(=O)c1c(NC(=O)c2nc(C(C)C)ncc2Nc2cccc(F)c2)cnn1C` [Example 188, 5-(3-Fluoro-phenylamino)-2-isopropyl-pyrimidine-4-carboxylic acid (1-methyl-5-methylcarbamoyl-1H-pyrazol-4-yl)-amide], the IC50 was determined as 51.7 nM. As to `CNC(=O)c1c(NC(=O)c2nc(COC)ccc2Nc2cncnc2)cnn1C` [Example 189, 6-Methoxymethyl-3-(pyrimidin-5-ylamino)-pyridine-2-carboxylic acid (1-methyl-5-methylcarbamoyl-1H-pyrazol-4-yl)-amide], the IC50 is 144 nM. In the case of `CNC(=O)c1c(NC(=O)c2nc(C(C)C)ncc2Nc2cncc(F)c2)cnn1C` [Example 190, 5-(5-Fluoro-pyridin-3-ylamino)-2-isopropyl-pyrimidine-4-carboxylic acid (1-methyl-5-methylcarbamoyl-1H-pyrazol-4-yl)-amide], the 50% inhibitory concentration (IC50) is 24 nM. On to `CNC(=O)c1c(NC(=O)c2nc(C(C)C)ncc2Nc2ccc(F)cc2)cnn1C` [Example 191, 5-(4-Fluoro-phenylamino)-2-isopropyl-pyrimidine-4-carboxylic acid (1-methyl-5-methylcarbamoyl-1H-pyrazol-4-yl)-amide], for which the IC50 was determined as 470 nM. With `CNC(=O)c1c(NC(=O)c2nc(C3CC3)cnc2Nc2cncnc2)cccc1OC` [Example 192, 6-Cyclopropyl-3-(pyrimidin-5-ylamino)-pyrazine-2-carboxylic acid (3-methoxy-2-methylcarbamoyl-phenyl)-amide] the figure was 3.1 nM; with `CNC(=O)c1c(NC(=O)c2nc(C3CCC3)ncc2Nc2cncnc2)cnn1C` [Example 193, 2-Cyclobutyl-5-(pyrimidin-5-ylamino)-pyrimidine-4-carboxylic acid (1-methyl-5-methylcarbamoyl-1H-pyrazol-4-yl)-amide], 11.7 nM. For the compound `O=C(Nc1cccnc1C(=O)N1CCC1)c1nc(C2CC2)cnc1Nc1cncnc1` [Example 194, 6-Cyclopropyl-3-(pyrimidin-5-ylamino)-pyrazine-2-carboxylic acid [2-(azetidine-1-carbonyl)-pyridin-3-yl]-amide], the IC50 amounted to 5.5 nM.

For the compound `O=C(Nc1cccnc1C(=O)N1CCCCC1)c1nc(C2CC2)cnc1Nc1cncnc1` [Example 195, 6-Cyclopropyl-3-(pyrimidin-5-ylamino)-pyrazine-2-carboxylic acid [2-(piperidine-1-carbonyl)-pyridin-3-yl]-amide], the half-inhibitory concentration (IC50) amounted to 16.4 nM.

Take `CNC(=O)c1c(Cl)cccc1NC(=O)c1nc(C2CC2)cnc1Nc1cncnc1` [Example 196, 6-Cyclopropyl-3-(pyrimidin-5-ylamino)-pyrazine-2-carboxylic acid (3-chloro-2-methylcarbamoyl-phenyl)-amide]: the IC50 stood at 22 nM. In the case of `CCNC(=O)c1c(NC(=O)c2nc(C3CC3)cnc2Nc2cncnc2)cnn1C` [Example 197, 6-Cyclopropyl-3-(pyrimidin-5-ylamino)-pyrazine-2-carboxylic acid (5-ethylcarbamoyl-1-methyl-1H-pyrazol-4-yl)-amide], the half-inhibitory concentration (IC50) was 3.9 nM. Turning to `O=C(Nc1cccnc1C(=O)N1CCCC1)c1nc(C2CC2)cnc1Nc1cncnc1` [Example 198, 6-Cyclopropyl-3-(pyrimidin-5-ylamino)-pyrazine-2-carboxylic acid [2-(pyrrolidine-1-carbonyl)-pyridin-3-yl]-amide], the IC50 is 2.5 nM. With `CCN(C)C(=O)c1ncccc1NC(=O)c1nc(C2CC2)cnc1Nc1cncnc1` [Example 199, 6-Cyclopropyl-3-(pyrimidin-5-ylamino)-pyrazine-2-carboxylic acid [2-(ethyl-methyl-carbamoyl)-pyridin-3-yl]-amide], the IC50 was 6.2 nM. Take `CNC(=O)c1c(NC(=O)c2nc(C3CC3)cnc2Nc2cnccn2)cnn1C` [Example 200, 6-Cyclopropyl-3-(pyrazin-2-ylamino)-pyrazine-2-carboxylic acid (1-methyl-5-methylcarbamoyl-1H-pyrazol-4-yl)-amide]: the IC50 stood at 426 nM. The value for `CCNC(=O)c1c(NC(=O)c2nc(C3CC3)cnc2Nc2cncnc2)cnn1CC` [Example 201, 6-Cyclopropyl-3-(pyrimidin-5-ylamino)-pyrazine-2-carboxylic acid (1-ethyl-5-ethylcarbamoyl-1H-pyrazol-4-yl)-amide] was 11.5 nM; that for `CCn1ncc(NC(=O)c2nc(C3CC3)cnc2Nc2cncnc2)c1C(=O)NCC(C)C` [Example 202, 6-Cyclopropyl-3-(pyrimidin-5-ylamino)-pyrazine-2-carboxylic acid (1-ethyl-5-isobutylcarbamoyl-1H-pyrazol-4-yl)-amide] was 3.8 nM; that for `CCN(C)C(=O)c1c(NC(=O)c2nc(C3CC3)cnc2Nc2cncnc2)cnn1C` [Example 203, 6-Cyclopropyl-3-(pyrimidin-5-ylamino)-pyrazine-2-carboxylic acid [5-(ethyl-methyl-carbamoyl)-1-methyl-1H-pyrazol-4-yl]-amide] was 33.8 nM. With `CCN(C)C(=O)c1ncncc1NC(=O)c1nc(C2CC2)cnc1Nc1cncnc1` [Example 204, 5-{[6-Cyclopropyl-3-(pyrimidin-5-ylamino)-pyrazine-2-carbonyl]-amino}-pyrimidine-4-carboxylic acid ethyl-methyl-amide], the concentration for half-maximal inhibition (IC50) was determined as 52.5 nM.

In the case of `CN(C)C(=O)c1ncncc1NC(=O)c1nc(C2CC2)cnc1Nc1cncnc1` [Example 205, 5-{[6-Cyclopropyl-3-(pyrimidin-5-ylamino)-pyrazine-2-carbonyl]-amino}-pyrimidine-4-carboxylic acid dimethylamide], the IC50 was determined as 90.1 nM. In the case of `COc1cccc(NC(=O)c2nc(C3CC3)cnc2Nc2cncnc2)c1C(=O)N(C)C` [Example 206, 6-Cyclopropyl-3-(pyrimidin-5-ylamino)-pyrazine-2-carboxylic acid (2-dimethylcarbamoyl-3-methoxy-phenyl)-amide], the IC50 is 12.2 nM. As for `CC(C)c1ccc(NC(=O)c2nc(C3CC3)cnc2Nc2cncnc2)c(C(=O)NCC(C)(C)O)c1` [Example 207, 6-Cyclopropyl-3-(pyrimidin-5-ylamino)-pyrazine-2-carboxylic acid [2-(2-hydroxy-2-methyl-propylcarbamoyl)-4-isopropyl-phenyl]-amide], the IC50 was 1.1 nM. With `CNC(=O)c1cc(C(C)C)ccc1NC(=O)c1nc(C2CC2)cnc1Nc1cncnc1` [Example 208, 6-Cyclopropyl-3-(pyrimidin-5-ylamino)-pyrazine-2-carboxylic acid (4-isopropyl-2-methylcarbamoyl-phenyl)-amide] the figure was 1.3 nM. The value for `CNC(=O)c1nc(COC)ccc1NC(=O)c1nc(C2CC2)cnc1Nc1cncnc1` [Example 209, 6-Cyclopropyl-3-(pyrimidin-5-ylamino)-pyrazine-2-carboxylic acid (6-methoxymethyl-2-methylcarbamoyl-pyridin-3-yl)-amide] was 3.7 nM; that for `O=C(Nc1cncnc1C(=O)N1CCC1)c1nc(C2CC2)cnc1Nc1cncnc1` [Example 211, 6-Cyclopropyl-3-(pyrimidin-5-ylamino)-pyrazine-2-carboxylic acid [4-(azetidine-1-carbonyl)-pyrimidin-5-yl]-amide] was 2650 nM. Consider `O=C(Nc1cncnc1C(=O)N1CCCCC1)c1nc(C2CC2)cnc1Nc1cncnc1` [Example 212, 6-Cyclopropyl-3-(pyrimidin-5-ylamino)-pyrazine-2-carboxylic acid [4-(piperidine-1-carbonyl)-pyrimidin-5-yl]-amide], for which the 50% inhibitory concentration (IC50) was 81.2 nM. Take `CNC(=O)c1cc(OCCOC)ccc1NC(=O)c1nc(C2CC2)cnc1Nc1cncnc1` [Example 214, 6-Cyclopropyl-3-(pyrimidin-5-ylamino)-pyrazine-2-carboxylic acid [4-(2-methoxy-ethoxy)-2-methylcarbamoyl-phenyl]-amide]: the IC50 was 1 nM.

As to `CC(C)(O)CNC(=O)c1cc(OCCO)ccc1NC(=O)c1nc(C2CC2)cnc1Nc1cncnc1` [Example 215, 6-Cyclopropyl-3-(pyrimidin-5-ylamino)-pyrazine-2-carboxylic acid [4-(2-hydroxy-ethoxy)-2-(2-hydroxy-2-methyl-propylcarbamoyl)-phenyl]-amide], the IC50 was found to be 0.5 nM. In the case of `CNC(=O)c1cc(OCCO)ccc1NC(=O)c1nc(C2CC2)cnc1Nc1cncnc1` [Example 216, 6-Cyclopropyl-3-(pyrimidin-5-ylamino)-pyrazine-2-carboxylic acid [4-(2-hydroxy-ethoxy)-2-methylcarbamoyl-phenyl]-amide], the IC50 was 0.8 nM. Consider `CNC(=O)c1ncncc1NC(=O)c1nc(C2CC2)cnc1Nc1cncnc1` [Example 218, 5-{[6-Cyclopropyl-3-(pyrimidin-5-ylamino)-pyrazine-2-carbonyl]-amino}-pyrimidine-4-carboxylic acid methylamide], for which the IC50 came out at 5.2 nM.

For the compound `O=C(Nc1cncnc1C(=O)N1CCCC1)c1nc(C2CC2)cnc1Nc1cncnc1` [Example 219, 6-Cyclopropyl-3-(pyrimidin-5-ylamino)-pyrazine-2-carboxylic acid [4-(pyrrolidine-1-carbonyl)-pyrimidin-5-yl]-amide], the IC50 was 52.3 nM.
